Experimental data reported in patent US8129381B2, “Caspase inhibitors and uses thereof” (Vertex Pharmaceuticals Incorporated, priority 2002, dated 2012).
pIC50: −log10 of the molar value.

What was measured:
[1] = target: T1, recombinant, purified human Caspase-1 (Homo sapiens, UniProt P29466); assay: Enzyme assay, caspase inhibition (fluorogenic substrate cleavage); type: biochemical; conditions: second order rate constant of enzyme inactivation; substrate Acetyl-Tyr-Val-Ala-Asp-amino-4-methylcoumarin
T1 sequence (P29466 120-297 limits assumed): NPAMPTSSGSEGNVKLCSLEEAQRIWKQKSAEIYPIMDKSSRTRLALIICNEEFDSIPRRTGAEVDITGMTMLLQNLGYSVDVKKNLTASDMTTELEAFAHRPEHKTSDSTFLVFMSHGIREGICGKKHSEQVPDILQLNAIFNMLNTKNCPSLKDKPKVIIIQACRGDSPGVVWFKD
T1 sequence (P29466 317-404 limits assumed): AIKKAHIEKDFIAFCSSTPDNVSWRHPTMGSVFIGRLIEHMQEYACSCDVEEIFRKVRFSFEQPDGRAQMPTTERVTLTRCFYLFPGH
Excerpt: (§1) The assays for caspase inhibition are based on the cleavage of a fluorogenic substrate by recombinant, purified human Caspases −1, −3, −7 or −8. The assays are run in essentially the same way as those reported by Garcia-Calvo et al., J. Biol. Chem. 273, 32608-32613 (1998), using a substrate specific for each enzyme. The substrate for Caspase-1 is Acetyl-Tyr-Val-Ala-Asp-amino-4-methylcoumarin and the substrate for Caspases −3, −7 and −8 is Acetyl-Asp-Glu-Val-Asp-amino-4-methylcoumarin both as disclosed in Garcia-Calvo et al., J. Biol. Chem. 273, 32608-32613 (1998).
(§2) The observed rate of enzyme inactivation at a particular inhibitor concentration, kobs, is computed by direct fits of the data to the equation derived by Thornberry et al., Biochemistry, 33, […] (1994) using a nonlinear least-squares analysis computer program (PRISM 2.0; GraphPad software). To obtain the second order rate constant, kinact, kobs values are plotted against their respective inhibitor concentrations and kinact values are subsequently calculated by computerized linear regression.
(§3) Compounds with kinact(M^−1s^−1)>500000 are listed as “A”. Compounds with kinact(M^−1s^−1) between 100000 and 500000 are listed as “B”. Compounds with kinact(M^−1s^−1)<100000 are listed as “C”.

[2] = target: T2, recombinant, purified human Caspase-3 (Homo sapiens, UniProt P42574); assay: as above; type: biochemical; conditions: second order rate constant of enzyme inactivation; substrate Acetyl-Asp-Glu-Val-Asp-amino-4-methylcoumarin
T2 sequence (P42574 29-175 limits assumed): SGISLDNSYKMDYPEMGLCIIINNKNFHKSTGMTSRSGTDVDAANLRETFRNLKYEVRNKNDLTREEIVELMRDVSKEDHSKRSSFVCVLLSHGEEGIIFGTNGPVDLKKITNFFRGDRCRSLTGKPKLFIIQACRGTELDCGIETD
T2 sequence (P42574 176-277 limits assumed): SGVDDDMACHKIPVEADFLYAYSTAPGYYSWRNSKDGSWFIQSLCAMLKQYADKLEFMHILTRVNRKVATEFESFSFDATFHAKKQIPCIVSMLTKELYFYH
Excerpt: as §1, §2, §3

[3] = target: recombinant, purified human Caspase-8 (Homo sapiens, UniProt Q14790); assay: as above; type: biochemical; conditions: second order rate constant of enzyme inactivation; substrate Acetyl-Asp-Glu-Val-Asp-amino-4-methylcoumarin
Chain of recombinant, purified human Caspase-8 (Q14790 217-374 limits assumed): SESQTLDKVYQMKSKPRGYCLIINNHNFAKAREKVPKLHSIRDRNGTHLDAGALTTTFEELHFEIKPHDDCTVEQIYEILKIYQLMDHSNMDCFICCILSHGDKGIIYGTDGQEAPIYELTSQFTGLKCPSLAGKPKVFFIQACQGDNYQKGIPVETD
Chain of recombinant, purified human Caspase-8 (Q14790 385-479 limits assumed): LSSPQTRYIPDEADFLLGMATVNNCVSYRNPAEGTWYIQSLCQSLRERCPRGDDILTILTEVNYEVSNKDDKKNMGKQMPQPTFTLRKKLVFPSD
Excerpt: as §1, §2, §3

[4] = tested on: IL-1β secretion from human whole blood; assay: Inhibition of IL-1β secretion from whole blood; type: cell-based; conditions: human whole blood diluted 1:2 in PBS, LPS 5 ng/ml, 18 hours, ELISA
Experimental: Human blood is freshly drawn from healthy donors and diluted 1:2 in PBS. To 500 μl of diluted blood […] of prediluted test compound in RPMI medium and […] LPS (5 ng/ml final concentration on the plate) are added (LPS, Serotype 0111:B4, Sigma L3012). After stimulation for 18 hours supernatants are collected and assayed for IL-1β levels using the appropriate ELISA kit (R&D systems).
Compounds with an IC50>10 μM are listed as “A”. Compounds with an IC50 between 1 μM and 10 uM are listed as “B”. Compounds with an IC50<1 μM are listed as “C”.

[5] = tested on: rat cortical neurons; assay: Hypoxia-induced apoptosis of rat cortical neurons; type: cell-based, Wistar rat; conditions: Cortical neurone, oxygen-depleted serum-free medium, Cell Death Detection ELISA (DNA fragmentation)
Experimental: Cortical neurons are dissociated from Wistar rat embryos (E17) by a modification of the procedure of Rogers et al., Brain Res. Bulletin, 44:131 (1998). Briefly, cerebral cortices are isolated aseptically from 15-20 Wistar rat embryos. A cell suspension is prepared by mincing the cerebral cortices and digesting them with papain. Cells are washed with ovomucoid enzyme inhibitor and DNaseI and plated onto Poly-D lysine coated plates in high glucose DMEM containing 10% heat-inactivated fetal calf serum, L-glutamine, penicillin and streptomycin. The yield of neurons is […] per embryo and they are 80-90% viable as assessed by Trypan blue exclusion.
The neurons are cultured in complete medium at 37° C. in a normal atmosphere for 48 hours prior to the hypoxia experiments. For hypoxia, the normal cell medium is replaced by oxygen-depleted serum-free medium. Cells are incubated in an atmosphere of 95% N2/5% CO2 for various lengths of time. Compounds are dissolved in DMSO at 100 mM then diluted in medium and added to the culture from time=0. The level of apoptosis is measured using a Cell Death Detection ELISA kit (Roche) which detects DNA fragmentation. Plates are read at 405 nm. Controls included cells cultured in aerobic conditions in serum-containing medium (+serum) and cells cultured in aerobic conditions in serum-deprived medium (−serum).
Compounds with an IC50>0.5 μM are listed as “A”. Compounds with an IC50 between 0.1 μM and 0.5 uM are listed as “B”. Compounds with an IC50<0.1 μM are listed as “C”.

Structure (SMILES)	kinact Caspase-1 [1]	kinact Caspase-3 [2]	kinact Caspase-8 [3]	pIC50 [4]	pIC50 [5]
CC[C@@H](C(=O)NC(CC(=O)O)C(=O)CF)n1cnc2ccc(Sc3ccccc3)cc2c1=O (stereo partly drawn) [Compound 16, 5-Fluoro-4-oxo-3-[(2S)-2-(4-oxo-6-phenylsulfanyl-4H-quinazolin-3-yl)-butyrylamino]-pentanoic acid]	A (Compounds with kinact(M^−1s^−1)>500000 are listed as “A”)	A (Compounds with kinact(M^−1s^−1)>500000 are listed as “A”)	A (Compounds with kinact(M^−1s^−1)>500000 are listed as “A”)	5.00 to 6.00	6.30 to 7.00
CC[C@@H](C(=O)N[C@@H](CC(=O)O)C(=O)COc1c(F)c(F)cc(F)c1F)n1cnc2ccccc2c1=O [Compound 6, (S,S)-4-Oxo-3-[2-(4-oxo-4H-quinazolin-3-yl)-butyrylamino]-5-(2,3,5,6-tetrafluoro-phenoxy)pentanoic acid]	B (Compounds with kinact(M^−1s^−1) between 100000 and 500000 are listed as “B”)	A (Compounds with kinact(M^−1s^−1)>500000 are listed as “A”)	C (Compounds with kinact(M^−1s^−1)<100000 are listed as “C”)	5.00 to 6.00	6.30 to 7.00
CC[C@@H](C(=O)N[C@@H](CC(=O)O)C(=O)COc1c(F)c(F)cc(F)c1F)n1cnc2ccc(Cl)cc2c1=O [Compound 5, (S,S)-3-[2-(6-Chloro-4-oxo-4H-quinazolin-3-yl)-butyrylamino]-4-oxo-5-(2,3,5,6-tetrafluoro-phenoxy)pentanoic acid]	A (Compounds with kinact(M^−1s^−1)>500000 are listed as “A”)	A (Compounds with kinact(M^−1s^−1)>500000 are listed as “A”)	B (Compounds with kinact(M^−1s^−1) between 100000 and 500000 are listed as “B”)	5.00 to 6.00	6.30 to 7.00
CC[C@@H](C(=O)NC(CC(=O)O)C(=O)CF)n1cnc2ccc(Oc3ccccc3Cl)cc2c1=O (stereo partly drawn) [Compound 12, 3-[(2S)-2-[6-(2-Chloro-phenoxy)-4-oxo-4H-quinazolin-3-yl)-butyrylamino]-5-fluoro-4-oxo-pentanoic acid]	A (Compounds with kinact(M^−1s^−1)>500000 are listed as “A”)	A (Compounds with kinact(M^−1s^−1)>500000 are listed as “A”)	A (Compounds with kinact(M^−1s^−1)>500000 are listed as “A”)	5.00 to 6.00	< 6.30
CC(C)[C@@H](C(=O)NC(CC(=O)O)C(=O)CF)n1ccc2ccc(Cl)cc2c1=O (mixture of isomers) [Compound 18, (S)-3-[2-(7-chloro-1-oxo-1H-isoquinolin-2-yl)-3-methylbutyrylamino]-5-fluoro-4-oxo-pentanoic acid]	B (Compounds with kinact(M^−1s^−1) between 100000 and 500000 are listed as “B”)	B (Compounds with kinact(M^−1s^−1) between 100000 and 500000 are listed as “B”)	C (Compounds with kinact(M^−1s^−1)<100000 are listed as “C”)	5.00 to 6.00	6.30 to 7.00
CC[C@@H](C(=O)NC(CC(=O)O)C(=O)CF)n1cnc2ccc(Oc3ccc(Cl)cc3Cl)cc2c1=O (stereo partly drawn) [Compound 15, 3-{(2S)-2-[6-(2,4-Dichloro-phenoxy)-4-oxo-4H-quinazolin-3-yl]-butyrylamino}-5-fluoro-4-oxo-pentanoic acid]	B (Compounds with kinact(M^−1s^−1) between 100000 and 500000 are listed as “B”)	B (Compounds with kinact(M^−1s^−1) between 100000 and 500000 are listed as “B”)	A (Compounds with kinact(M^−1s^−1)>500000 are listed as “A”)	5.00 to 6.00	6.30 to 7.00
CCCSc1ccc2ncn([C@@H](CC)C(=O)NC(CC(=O)O)C(=O)CF)c(=O)c2c1 (stereo partly drawn) [Compound 22, 5-Fluoro-4-oxo-3-[(2S)-2-(4-oxo-6-propylsulfanyl-4H-quinazolin-3-yl)-butyrylamino]-pentanoic acid]	A (Compounds with kinact(M^−1s^−1)>500000 are listed as “A”)	A (Compounds with kinact(M^−1s^−1)>500000 are listed as “A”)	A (Compounds with kinact(M^−1s^−1)>500000 are listed as “A”)	> 6.00	< 6.30
CC[C@@H](C(=O)NC(CC(=O)O)C(=O)CF)n1ccc2ccc(Cl)cc2c1=O (mixture of isomers) [Compound 1, (S)-3-[2-(7-chloro-1-oxo-1H-isoquinolin-2-yl)-butyrylamino]-5-fluoro-4-oxo-pentanoic acid]	A (Compounds with kinact(M^−1s^−1)>500000 are listed as “A”)	A (Compounds with kinact(M^−1s^−1)>500000 are listed as “A”)	B (Compounds with kinact(M^−1s^−1) between 100000 and 500000 are listed as “B”)	> 6.00	6.30 to 7.00
CC[C@@H](C(=O)N[C@@H](CC(=O)O)C(=O)COc1c(F)ccc(F)c1F)n1cnc2ccccc2c1=O [Compound 8, (S,S)-4-Oxo-3-[2-(4-oxo-4H-quinazolin-3-yl)-butyrylamino]-5-(2,5,6-trifluoro-phenoxy)-pentanoic acid]	B (Compounds with kinact(M^−1s^−1) between 100000 and 500000 are listed as “B”)	B (Compounds with kinact(M^−1s^−1) between 100000 and 500000 are listed as “B”)	C (Compounds with kinact(M^−1s^−1)<100000 are listed as “C”)	5.00 to 6.00	6.30 to 7.00
CC[C@@H](C(=O)NC(CC(=O)O)C(=O)CF)n1ccc2cc(Cl)ccc2c1=O (mixture of isomers) [Compound 3, (S)-3-[2-(6-chloro-1-oxo-1H-isoquinolin-2-yl)-butyrylamino]-5-fluoro-4-oxo-pentanoic acid]	B (Compounds with kinact(M^−1s^−1) between 100000 and 500000 are listed as “B”)	B (Compounds with kinact(M^−1s^−1) between 100000 and 500000 are listed as “B”)	C (Compounds with kinact(M^−1s^−1)<100000 are listed as “C”)	5.00 to 6.00	6.30 to 7.00
